# Measurements: patent US8455467B2, “2-methylene-vitamin D analogs and their uses” (Wisconsin Alumni Research Foundation, priority 2011, dated 2013)
# What was measured:
# [1] = test system: Human promyelocytic leukemia (HL60) cells; experiment: HL-60 cell differentiation (nitro blue tetrazolium reduction); type: cell-based; settings: for EC50: 4 days treatment, NBT reduction; for potency on HL-60 cell differentiation compared to 1,25(OH)2D3: in words
# Protocol: Serial dilutions were prepared so that a range of drug concentrations could be tested without changing the final concentration of ethanol 0.2%) present in the cell cultures.
# Human promyelocytic leukemia (HL60) cells were grown in RPMI-1640 medium containing 10% fetal bovine serum. The cells were incubated at 37° C. in the presence of 5% CO2.
# HL60 cells were plated at 1.2×10^5 cells/ml. Eighteen hours after plating, cells in duplicate were treated with drug. Four days later, the cells were harvested and a nitro blue tetrazolium reduction assay was performed (Collins et al., 1979; J. Exp. Med. 149:969-974). The percentage of differentiated cells was determined by counting a total of 200 cells and recording the number that contained intracellular black-blue formazan deposits. Verification of differentiation to monocytic cells was determined by measuring phagocytic activity (data not shown).
# [2] = Bone calcium mobilization (serum calcium) in vitamin D-deficient rats; type: in vivo, rat; settings: 0.02% Ca diet; for bone calcium mobilization (serum calcium) at 87 pmol: 87 pmol/day for 4 consecutive days; for bone calcium mobilization activity (serum calcium): 4 consecutive ip doses, overall, compared to 1,25(OH)2D3; for bone calcium mobilization (serum calcium) at 780 pmol: 780 pmol/day for 4 consecutive days
# Protocol: (§1) Male, weanling Sprague-Dawley rats were placed on Diet 11 (Suda et al, J. Nutr. 100:1049, 1970) (0.47% Ca)+vitamins AEK for one week followed by Diet 11 (0.02% Ca)+vitamins AEK for 3 weeks. The rats were then switched to the same diet containing 0.47% Ca for one week followed by two weeks on the same diet containing 0.02% Ca. Dose administration began during the last week on 0.02% calcium diet. Four consecutive ip doses were given approximately 24 hours apart. Twenty-four hours after the last dose, blood was collected from the severed neck and the concentration of serum calcium determined by atomic absorption spectrometry as a measure of bone calcium mobilization. The first 10 cm of the intestine was also collected for intestinal calcium transport analysis using the everted gut sac method.
# [3] = target: T1, full-length recombinant rat vitamin D receptor (Rattus norvegicus, UniProt P13053); experiment: Vitamin D receptor competitive binding with [3H]-1,25(OH)2D3; settings: full-length recombinant rat VDR; for Ki: 1 nM radioligand, read-out: Ki, competition with [3H]-1,25(OH)2D3 for binding to the vitamin D receptor; for binding affinity to the receptor compared to 1,25-(OH)2D3: in words
# T1 construct: Full-length recombinant rat receptor was expressed in E. coli BL21 (DE3) Codon Plus RIL cells; His tag (histidine tag) (C); made in house; host or cells: E. coli BL21 (DE3) Codon Plus RIL
# T1 sequence (P13053 1-423): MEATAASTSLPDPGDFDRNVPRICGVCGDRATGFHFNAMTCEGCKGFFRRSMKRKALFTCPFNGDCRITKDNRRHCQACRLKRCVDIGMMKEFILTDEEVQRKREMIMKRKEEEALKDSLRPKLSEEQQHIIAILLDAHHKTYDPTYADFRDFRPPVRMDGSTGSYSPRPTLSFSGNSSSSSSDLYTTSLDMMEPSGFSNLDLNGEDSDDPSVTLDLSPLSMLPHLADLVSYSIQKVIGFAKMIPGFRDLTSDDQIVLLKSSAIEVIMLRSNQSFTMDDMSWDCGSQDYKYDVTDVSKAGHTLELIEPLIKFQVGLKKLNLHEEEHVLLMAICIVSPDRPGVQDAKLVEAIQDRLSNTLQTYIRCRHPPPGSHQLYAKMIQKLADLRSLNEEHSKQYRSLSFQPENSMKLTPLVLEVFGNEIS
# Protocol: Full-length recombinant rat receptor was expressed in E. coli BL21 (DE3) Codon Plus RIL cells and purified to homogeneity using two different column chromatography systems. The first system was a nickel affinity resin that utilizes the C-terminal histidine tag on this protein. The protein that was eluted from this resin was further purified using ion exchange chromatography (S-Sepharose Fast Flow). Aliquots of the purified protein were quick frozen in liquid nitrogen and stored at −80° C. until use. For use in binding assays, the protein was diluted in TEDK50 (50 mM Tris, 1.5 mM EDTA, pH7.4, 5 mM DTT, 150 mM KCl) with 0.1% Chaps detergent. The receptor protein and ligand concentration was optimized such that no more than 20% of the added radiolabeled ligand was bound to the receptor.
# Radiolabeled and unlabeled ligands were added to 100 mcl of the diluted protein at a final ethanol concentration of ≦10%, mixed and incubated overnight on ice to reach binding equilibrium. The following day, 100 mcl of hydroxylapatite slurry (50%) was added to each tube and mixed at 10-minute intervals for 30 minutes. The hydroxylapaptite was collected by centrifugation and then washed three times with Tris-EDTA buffer (50 mM Tris, 1.5 mM EDTA, pH 7.4) containing 0.5% Titron X-100. After the final wash, the pellets were transferred to scintillation vials containing 4 ml of Biosafe II scintillation cocktail, mixed and placed in a scintillation counter. Total binding was determined from the tubes containing only radiolabeled ligand.
# [4] = Intestinal calcium transport (everted gut sac method) in vitamin D-deficient rats; type: in vivo, rat; settings: 0.02% Ca diet, 4 consecutive ip doses, compared to 1,25(OH)2D3
# Protocol: as §1
smiles,measurement,setting,value
"C=C1CC(=C)[C@H](O)C/C1=C/C=C1\CCC[C@]2(C)[C@@H]([C@H](C)CCCC(C)(C)O)CC[C@@H]12 [1D-QM, (20R)-25-hydroxy-2-methylene-vitamin D3]",EC50,"[1]; Homo sapiens, HL-60, 96 h",> 100 nM
same,"potency on HL-60 cell differentiation compared to 1,25(OH)2D3",[1],"almost as potent as 1,25(OH)2D3"
same,bone calcium mobilization (serum calcium) at 87 pmol,[2],little or no mobilization of bone calcium
same,bone calcium mobilization activity (serum calcium),[2],less potent than the native hormone
same,Ki,[3],0.9 nM
same,"binding affinity to the receptor compared to 1,25-(OH)2D3",[3],about the same affinity
"C=C1CC(=C)[C@H](O)C/C1=C/C=C1\CCC[C@]2(C)[C@@H]([C@@H](C)CCCC(C)(C)O)CC[C@@H]12 [1D-QMS, (20S)-25-hydroxy-2-methylene-vitamin D3]",EC50,"[1]; Homo sapiens, HL-60, 96 h",10 nM
same,"potency on HL-60 cell differentiation compared to 1,25(OH)2D3",[1],"almost as potent as 1,25(OH)2D3"
same,intestinal calcium transport activity,[4],"about equivalent to 1,25(OH)2D3"
same,bone calcium mobilization (serum calcium) at 780 pmol,[2],significant mobilization of bone calcium
same,bone calcium mobilization activity (serum calcium),[2],about the same potency as the native hormone
same,Ki,[3],0.2 nM
same,"binding affinity to the receptor compared to 1,25-(OH)2D3",[3],about the same affinity
"C=C1/C(=C\C=C2/CCC[C@]3(C)[C@@H]([C@H](C)CCCC(C)(C)O)CC[C@@H]23)C[C@@H](O)C[C@@H]1O [1α,25-dihydroxyvitamin D3, reference compound]",EC50,[1],3 nM
same,bone calcium mobilization (serum calcium) at 87 pmol,[2],significant increases in serum calcium
same,bone calcium mobilization (serum calcium) at 780 pmol,[2],significant increases in serum calcium
same,bone calcium mobilization activity (serum calcium),[2],increased serum calcium levels
